From patent US9994551B2, “Pyridazine derivatives as RORc modulators” (Genentech, Inc., priority 2015, dated 2018)

Each compound was assayed against T1, RORc ligand binding domain (Homo sapiens, UniProt P51449) (assay: In vitro RORc ligand binding assay (25-[3H]hydroxycholesterol displacement, filter binding)).
T1 construct: host or cells: E. coli
T1 sequence (P51449 269-508 limits assumed): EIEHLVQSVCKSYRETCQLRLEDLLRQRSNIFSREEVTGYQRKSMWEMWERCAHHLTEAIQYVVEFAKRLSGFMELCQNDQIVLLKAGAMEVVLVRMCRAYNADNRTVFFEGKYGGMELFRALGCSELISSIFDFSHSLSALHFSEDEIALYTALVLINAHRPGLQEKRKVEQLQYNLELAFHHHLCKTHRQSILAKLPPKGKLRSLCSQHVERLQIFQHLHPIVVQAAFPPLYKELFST
Protocol: This assay was used to determine a compound's potency in inhibiting activity of RORc by determining, Kiapp, IC50, or percent inhibition values.
On day of the assay, 100 uL of 0.05% CHAPS (in deionized H2O) was added to all wells of the GFB Unifilter plate and allowed soak for 1 h. A wash buffer of 50 mM HEPES (pH 7.4), 150 mM NaCl, and 5 mM MgCl2 was prepared to wash the filter plate. To prepare an assay buffer, BSA was added to the wash buffer to reach 0.01% and DTT was added to reach 1 mM.
The 20× compound stocks were diluted in DMSO with Assay Buffer 4-fold to reach 5× the final test concentration in 25% DMSO (10 uL compound+30 uL Assay Buffer). Solutions were mixed by aspiration several times with a pipette set on 50 uL volume. For the assay, 10 uL of 5× compound stock solutions in 25% DMSO were added to the assay plate in duplicate.
For two point screening, 10 mM stock compound solutions were diluted in DMSO to obtain 200 uM (20× the high test concentration) and then diluted 10-fold further to reach 20 uM (20× the low test concentration). The 20× stocks were diluted 4-fold with Assay Buffer (10 uL compound+30 uL Assay Buffer) to reach 5× the test concentrations (50 uM and 5 uM) and 10 uL were added to two assay plates for the duplicate wells. With each concentration tested on 2 plates, each set of 80 compounds used 4 assay plates (1 uM and 10 uM, with n=2).
For 25-hydroxycholesterol in 25% DMSO/75% Assay Buffer; 10 uL per well was used for NSB samples. Wells for Total Binding and No Receptor sample determination contained 10 uL of 25% DMSO/75% Assay Buffer per well.
Add 20 uL to all wells to reach 6 nM final concentration in the assay.
Stock receptor solution was diluted in assay buffer to obtain 1.5 ug/mL in Assay Buffer. 20 uL was added to all wells. For No Receptor samples, 20 uL Assay Buffer was substituted for receptor solution.
Assay plates were 96-well polypropylene V-bottom plates. 10 uL of 5× compound in 25% DMSO/75% Assay Buffer was added to Test wells. 10 uL of 25% DMSO/75% Assay Buffer was added to Total Binding or No Receptor wells. 10 uL of 5 uM 25-hydroxycholesterol in 25% DMSO/75% Assay Buffer was added to NSB wells. […] 20 uL of 1.5 ug/mL RORc receptor was added to wells (or 40 uL Assay Buffer to No R wells). Following addition to the wells, the plates were incubated 3 h at 25° C.
Using a Packard Filtermate Harvester, the filter plate were washed 4 times following transfer of the incubated samples. Plates were dry-filtered completely (2 h at 50° C. or overnight at room temperature). 50 uL Microscint 0 was added to all wells and read on Topcount protocol Inverted.

| SMILES | IC50 [µM] |
| --- | --- |
| CC1(C)[C@H]2CC[C@]1([C@H]1CN(c3ncn[nH]3)CCO1)c1nnc(-c3c(F)cccc3F)cc12 [Compound 144, 2-[5-(2,6-difluorophenyl)-11,11-dimethyl-3,4-diazatricyclo[6.2.1.02,7]undeca-2,4,6-trien-1-yl]-4-(1H-1,2,4-triazol-5-yl)morpholine] | 0.034 |
| CC1(C)[C@H]2CC[C@]1([C@H]1CCCN(c3cnccn3)C1)c1nnc(-c3c(F)cccc3F)cc12 [Compound 165, 5-(2,6-difluorophenyl)-11,11-dimethyl-1-(1-pyrazin-2-yl-3-piperidyl)-3,4-diazatricyclo[6.2.1.02,7]undeca-2,4,6-triene] | 0.024 |
| CN(C)C(=O)N1CCC[C@H]([C@@]23CC[C@@H](c4cc(-c5c(F)cccc5F)nnc42)C3(C)C)C1 [Compound 97, (R)-3-((5R,8R)-3-(2,6-difluorophenyl)-9,9-dimethyl-5,6,7,8-tetrahydro-5,8-methanocinnolin-8-yl)-N,N-dimethylpiperidine-1-carboxamide] | 0.0985 |
| CC1(C)[C@H]2CC[C@]1([C@H]1CCCN(S(C)(=O)=O)C1)c1nnc(-c3c(F)cccc3F)cc12 [Compound 95, (5R,8R)-3-(2,6-difluorophenyl)-9,9-dimethyl-8-((R)-1-(methylsulfonyl)piperidin-3-yl)-5,6,7,8-tetrahydro-5,8-methanocinnoline] | 0.344 |
| CC(C)NC(=O)N1CCC[C@H]([C@@]23CC[C@@H](c4cc(-c5c(F)cccc5F)nnc42)C3(C)C)C1 [Compound 137, 3-[5-(2,6-difluorophenyl)-11,11-dimethyl-3,4-diazatricyclo[6.2.1.02,7]undeca-2,4,6-trien-1-yl]-N-isopropyl-piperidine-1-carboxamide] | 0.042 |
| CC1(C)[C@H]2CC[C@]1(Oc1cncnc1)c1nnc(-c3c(F)cccc3F)cc12 [Compound 28, (5S,8R)-3-(2,6-difluorophenyl)-9,9-dimethyl-8-(pyrimidin-5-yloxy)-5,6,7,8-tetrahydro-5,8-methanocinnoline] | 0.185 |
| CC1(C)[C@H]2CC[C@]1([C@H]1CN(Cc3ccccc3)CCO1)c1nnc(-c3c(F)cccc3F)cc12 [Compound 61, (S)-4-benzyl-2-((5R,8R)-3-(2,6-difluorophenyl)-9,9-dimethyl-5,6,7,8-tetrahydro-5,8-methanocinnolin-8-yl)morpholine] | 0.172 |
| CC1(C)[C@H]2CC[C@]1([C@@H]1CN(CC(F)F)CCO1)c1nnc(-c3c(F)cccc3F)cc12 [Compound 83, (R)-4-(2,2-difluoroethyl)-2-((5R,8R)-3-(2,6-difluorophenyl)-9,9-dimethyl-5,6,7,8-tetrahydro-5,8-methanocinnolin-8-yl)morpholine] | 0.356 |
| CC1(C)[C@H]2CC[C@]1([C@@H]1CN(c3ccccn3)CCO1)c1nnc(-c3c(F)cccc3F)cc12 [Compound 79, (R)-2-((5R,8R)-3-(2,6-difluorophenyl)-9,9-dimethyl-5,6,7,8-tetrahydro-5,8-methanocinnolin-8-yl)-4-(pyridin-2-yl)morpholine] | 0.412 |
| CC(=O)N1CCC[C@H]([C@@]23CC[C@@H](c4cc(-c5c(F)cccc5F)nnc42)C3(C)C)C1 [Compound 98, 1-((R)-3-((5R,8R)-3-(2,6-difluorophenyl)-9,9-dimethyl-5,6,7,8-tetrahydro-5,8-methanocinnolin-8-yl)piperidin-1-yl)ethanone] | 0.139 |
| CC1(C)[C@H]2CC[C@]1(Oc1ccccc1)c1nnc(-c3c(F)cccc3F)cc12 [Compound 24, (5S,8R)-3-(2,6-difluorophenyl)-9,9-dimethyl-8-phenoxy-5,6,7,8-tetrahydro-5,8-methanocinnoline] | 0.0144 |
| CC1(C)[C@H]2CC[C@]1([C@@H]1CN(C(N)=O)CCO1)c1nnc(-c3c(F)cccc3F)cc12 [Compound 68, (R)-2-((5R,8R)-3-(2,6-difluorophenyl)-9,9-dimethyl-5,6,7,8-tetrahydro-5,8-methanocinnolin-8-yl)morpholine-4-carboxamide] | 0.0568 |
| Cc1n[nH]c(C(=O)N2CCC[C@H]([C@@]34CC[C@@H](c5cc(-c6c(F)cccc6F)nnc53)C4(C)C)C2)n1 [Compound 129, [3-[5-(2,6-difluorophenyl)-11,11-dimethyl-3,4-diazatricyclo[6.2.1.02,7]undeca-2,4,6-trien-1-yl]-1-piperidyl]-(3-methyl-1H-1,2,4-triazol-5-yl)methanone] | 0.083 |

Now from value to compound:

| IC50 [µM] | SMILES |
| --- | --- |
| 0.0689 | CC[C@@H](O[C@@]12CC[C@@H](c3cc(-c4c(F)cccc4F)nnc31)C2(C)C)C(=O)N1CC(C#N)C1 [Compound 37, 1-((R)-2-(((5S,8R)-3-(2,6-difluorophenyl)-9,9-dimethyl-5,6,7,8-tetrahydro-5,8-methanocinnolin-8-yl)oxy)butanoyl)azetidine-3-carbonitrile] |
| 0.0674 | CC[C@@H](C[C@@]12CC[C@@H](c3cc(-c4c(F)cccc4F)nnc31)C2(C)C)C(N)=O [Compound 5, (S)-2-(((5R,8R)-3-(2,6-difluorophenyl)-9,9-dimethyl-5,6,7,8-tetrahydro-5,8-methanocinnolin-8-yl)methyl)butanamide] |
| 0.0057 | CC[C@@H](O[C@@]12CC[C@@H](c3cc(-c4c(F)cccc4F)nnc31)C2(C)C)c1nnc(CO)o1 [Compound 32, (5-((R)-1-(((5S,8R)-3-(2,6-difluorophenyl)-9,9-dimethyl-5,6,7,8-tetrahydro-5,8-methanocinnolin-8-yl)oxy)propyl)-1,3,4-oxadiazol-2-yl)methanol] |
| 0.0464 | CC[C@@H](O[C@@]12CC[C@@H](c3cc(-c4c(F)cccc4F)nnc31)C2(C)C)C(=O)N(C)CCOC [Compound 100, (R)-2-(((5S,8R)-3-(2,6-difluorophenyl)-9,9-dimethyl-5,6,7,8-tetrahydro-5,8-methanocinnolin-8-yl)oxy)-N-(2-methoxyethyl)-N-methylbutanamide] |
| 0.0495 | CC[C@@H](O[C@@]12CC[C@@H](c3cc(-c4c(F)cccc4F)nnc31)C2(C)C)C(=O)NCC(C)(C)O [Compound 52, (R)-2-(((5S,8R)-3-(2,6-difluorophenyl)-9,9-dimethyl-5,6,7,8-tetrahydro-5,8-methanocinnolin-8-yl)oxy)-N-(2-hydroxy-2-methylpropyl)butanamide] |
| 0.0145 | CC1(C)[C@H]2CC[C@]1(O[C@@H](C(N)=O)C1CC1)c1nnc(-c3c(F)cccc3F)cc12 [Compound 44] |
| 0.144 | CC[C@@H](O[C@@]12CC[C@@H](c3cc(-c4c(F)cccc4F)nnc31)C2(C)C)C(=O)N1CC(CO)C1 [Compound 38, (R)-2-(((5S,8R)-3-(2,6-difluorophenyl)-9,9-dimethyl-5,6,7,8-tetrahydro-5,8-methanocinnolin-8-yl)oxy)-1-(3-(hydroxymethyl)azetidin-1-yl)butan-1-one] |
| 0.0952 | CC(C)(O)CNC(=O)CO[C@@]12CC[C@@H](c3cc(-c4c(F)cccc4F)nnc31)C2(C)C [Compound 48, 2-(((5S,8R)-3-(2,6-difluorophenyl)-9,9-dimethyl-5,6,7,8-tetrahydro-5,8-methanocinnolin-8-yl)oxy)-N-(2-hydroxy-2-methylpropyl)acetamide] |
| 0.836 | CC1(C)[C@H]2CC[C@]1(Oc1cncc(C(=O)NCCO)n1)c1nnc(-c3c(F)cccc3F)cc12 [Compound 30, 6-(((5S,8R)-3-(2,6-difluorophenyl)-9,9-dimethyl-5,6,7,8-tetrahydro-5,8-methanocinnolin-8-yl)oxy)-N-(2-hydroxyethyl)pyrazine-2-carboxamide] |
| 0.014 | CC[C@@H](O[C@@]12CC[C@@H](c3cc(-c4c(F)cccc4F)nnc31)C2(C)C)C(=O)O [Compound 111, (2R)-2-[[(1R,8S)-5-(2,6-difluorophenyl)-11,11-dimethyl-3,4-diazatricyclo[6.2.1.02,7]undeca-2,4,6-trien-1-yl]oxy]butanoic acid] |
| 0.0501 | CC[C@@H](O[C@@]12CC[C@@H](c3cc(-c4c(F)cccc4F)nnc31)C2(C)C)c1nc[nH]n1 [Compound 40, (5S,8R)-8-((R)-1-(1H-1,2,4-triazol-3-yl)propoxy)-3-(2,6-difluorophenyl)-9,9-dimethyl-5,6,7,8-tetrahydro-5,8-methanocinnoline] |
